The values below come from patent publication US10034880B2, “Ophthalmic suspension formulation” (Sumitomo Dainippon Pharma Co., Ltd., priority 2014, dated 2018).

Series [1] can be described thus: Evaluation of transferability to posterior eye segment in rats (V). The following applies: ophthalmic suspension formulations, eyedrops 5 μL for one eye once; 60 minutes after administration. The format is in vivo, SD rats. The method, then:
To both eyes of SD rats, ophthalmic formulation I, ophthalmic formulation F, ophthalmic formulation G, ophthalmic formulation X1, ophthalmic formulation X2, ophthalmic formulation Y1, or ophthalmic formulation Y2 was administered in eyedrops in the amount of 5 μL for one eye once. 60 minutes after the administration, each concentration of Compound A in retina was measured.

Series [2] has as its system VEGF production in retina. The following applies: oral repetitive administration, SDT rats; cited from earlier work.
Series [3] is described as follows: Evaluation of transferability to posterior eye segment in rats (I-1) and (I-2). It counts as in vivo. To be noted: SDT, rat, oral repetitive administration 1.0 mg/kg once a day for 21 days, 60 minutes after final administration. On the procedure:
To both eyes of rat model of diabetes, ophthalmic suspension formulation A1 wherein Compound A was suspended in a generally-tolerated dose as a suspension formulation (200 mg/mL) or ophthalmic solution formulation Z wherein Compound A was dissolved (400 μg/mL) was administered in eyedrops in the amount of 5 μL for one eye (which is a maximum tolerated dose for eyedrops in rats) totally 5 times at intervals of 5 minutes. 60 minutes after the administration, each concentration of Compound A in cornea, retina and plasma was measured.
Eyedrop has a limitation about tolerated volume of one shot, which is different from other dosage forms. Thus, the delivery amount of the drug to the target tissue which is obtained from eyedrop of a maximum tolerated dose is important. The tolerated volume varies depending on animal species, and the maximum volume in rats is 5 μL for one eye. […]
In addition, Diabetic Retinopathy, INTECH, Chapter 15 “Prophylactic Medical Treatment of Diabetic Retinopathy”, Akihiro Kakehashi et al. disclose an experiment of oral repetitive administration of Compound A to SDT rats, wherein the dose of Compound A making the retinal capillary weakened and the VEGF production in retina inhibited is 1.0 mg/kg. […] 60 minutes after the final administration, each concentration of Compound A in cornea, retina and plasma was measured.

In series [4] the test system is normal human retinal capillary endothelial cell (HREC). Briefly: Cell migration assay: inhibition of facilitatory action of cell migration by VEGF stimulation. It counts as cell-based. The method, then:
The anti-VEGF action of Compound A was evaluated by an experimental method (cell migration assay) described in J Diabetes Complications. 2012; 26(5):369-77. In the experiment, a normal human retinal capillary endothelial cell (HREC) which was obtained from Cell System Co., LTD. was used, and a cell culture used herein was CS-C medium (Cell System Co., LTD.). […] As for Lucentis, its formulation stock solution was diluted with the cell culture, wherein the dilution ratio was 50 μL of the formulation stock solution per 4 mL of the cell culture, and the diluted solution was used in the experiment. The HREC was seeded in 6-well plate, and it was incubated until the confluency became 80-90%. 20-24 hours before assaying the cell migration by the VEGF stimulation, the cell culture was changed to a cell culture containing 0.1% fetal bovine serum. Then, the culture cell monolayer was wounded with a 200 μL pipette tip at one point per well, and the width of the wounds were measured with a microscope. […] About 18 hours after changing the cell culture, each width of the wounds was measured with a microscope, and the anti-VEGF action was evaluated by comparing the width with that of the just-wounded one.

A further series deals with aldose reductase (Homo sapiens, UniProt P15121). As to the kind of experiment: AR inhibitory action. The format is biochemical.

Entries after “also recorded” stand apart in the source; their conditions may differ. Like-named read-outs stand apart in the source and are kept apart here.

On to `O=C1C[C@@]2(C(=O)N1)C(=O)N(Cc1ccc(Br)cc1F)C(=O)c1cccn12` [Compound A, (R)-(−)-2-(4-bromo-2-fluorobenzyl)-1,2,3,4-tetrahydropyrrolo[1,2-a]pyrazine-4-spiro-3′-pyrrolidine-1,2′,3,5′-tetrone], for which, in series [1], the delivery to retina entry is given as “delivered to retina much more than the ophthalmic suspension formulation comprising Compound B or C”. In addition, the “oral dose making the retinal capillary weakened and the VEGF production in retina inhibited” value in series [2] was 1.0 mg/kg. The Kp at 60 min in series [3] (cornea and plasma (cornea/plasma ratio), read-out: concentration ratio cornea to plasma (plasma:cornea:retina, plasma = 1)) was ~1; in series [3] (retina and plasma (retina/plasma ratio), po, 1 mg/kg, read-out: retina/plasma ratio) it was ~1. Further, the “action inhibiting the HREC migration, comparison” value in series [4] (1 nM Compound A, VEGF stimulation, about 18 hours) is on record as “in the same level as that of 100 nM ((28 ng/mL)/L) Compound C; also recorded: more potent than that of 1000 nM ((320 ng/mL)/L) Compound B; also recorded: in the same level as Lucentis”. In addition, the Ki (in general, the dissociation constant of the complex between target and ligand, obtained from inhibition or displacement) at aldose reductase came out at 0.23 nM. Besides, the “AR inhibitory action, action ratio relative to Compound A” value at aldose reductase (figure in brackets) came out at 1.0 ×.
Consider `CC(/C=C1\SC(=S)N(CC(=O)O)C1=O)=C\c1ccccc1` [Compound B, [5-[(1Z,2E)-2-methyl-3-phenylallylidene]-4-oxo-2-thioxothiazolidin-3-yl]acetic acid], for which, in series [1], the delivery to retina entry is on record as “hardly delivered to retina”.
The same measure, in the same setting: the entry for `NC(=O)[C@@H]1C[C@]2(NC(=O)NC2=O)c2cc(F)ccc2O1` [Compound C, (2S,4S)-6-fluoro-2′,5′-dioxospiro[chroman-4,4′-imidazolidine]-2-carboxamide] is “hardly delivered to retina”.

B1: Lucentis: anti-VEGF antibody formulation (general name: ranibizumab) (antibody, chains of the INN, looked up, V domains shown)
VH: EVQLVESGGGLVQPGGSLRLSCAASGYDFTHYGMNWVRQAPGKGLEWVGWINTYTGEPTYAADFKRRFTFSLDTSKSTAYLQMNSLRAEDTAVYYCAKYPYYYGTSHWYFDVWGQGTLVTVSS
VL: DIQLTQSPSSLSASVGDRVTITCSASQDISNYLNWYQQKPGKAPKVLIYFTSSLHSGVPSRFSGSGSGTDFTLTISSLQPEDFATYYCQQYSTVPWTFGQGTKVEIK
B1: in series [4] (about 18 hours after changing the cell culture), the “inhibition of HREC migration facilitated by VEGF stimulation” value is “inhibited the migration”.
